Data as given in US9376436B2, “2-(pyridin-2yl)-1, 7-diaza-spiro [4.4] nonane-6-one compound as voltage-gated sodium channels modulators” (CONVERGENCE PHARMACEUTICALS LIMITED, priority 2011, dated 2016).
Where a name gives a salt, the structure may show the parent alone. Read-outs that look alike come from different tables or passages of the source.

Target: T1, hNaV1.7 (Homo sapiens, UniProt Q15858)
T1 construct: expressed in transfected cells; host or cells: HEK293
Test: QPatch NaV1.7 assay (whole-cell patch clamp, QPatch16x)
Type: cell-based
Details: HEK293-hNaV1.7 cells
Procedure, shortened: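 Automated whole-cell recordings in hNaV1.7-expressing HEK293 cells, holding at either −90 mV (mostly closed channels) or the half-inactivation voltage. Compounds applied cumulatively at four concentrations for 120 s each; peak current on 20 ms depolarisation to 0 mV fitted by Hill equation to yield pIC50.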

[1] = holding voltage V1/2 SSI (half of channels inactivated), read-out: QP Nav1.7 SSI vhalf pIC50 (converted)
[2] = holding voltage −90 mV (most channels closed), read-out: QP Nav1.7 −90 mV pIC50 (converted)

T1 sequence (Q15858 whole entry): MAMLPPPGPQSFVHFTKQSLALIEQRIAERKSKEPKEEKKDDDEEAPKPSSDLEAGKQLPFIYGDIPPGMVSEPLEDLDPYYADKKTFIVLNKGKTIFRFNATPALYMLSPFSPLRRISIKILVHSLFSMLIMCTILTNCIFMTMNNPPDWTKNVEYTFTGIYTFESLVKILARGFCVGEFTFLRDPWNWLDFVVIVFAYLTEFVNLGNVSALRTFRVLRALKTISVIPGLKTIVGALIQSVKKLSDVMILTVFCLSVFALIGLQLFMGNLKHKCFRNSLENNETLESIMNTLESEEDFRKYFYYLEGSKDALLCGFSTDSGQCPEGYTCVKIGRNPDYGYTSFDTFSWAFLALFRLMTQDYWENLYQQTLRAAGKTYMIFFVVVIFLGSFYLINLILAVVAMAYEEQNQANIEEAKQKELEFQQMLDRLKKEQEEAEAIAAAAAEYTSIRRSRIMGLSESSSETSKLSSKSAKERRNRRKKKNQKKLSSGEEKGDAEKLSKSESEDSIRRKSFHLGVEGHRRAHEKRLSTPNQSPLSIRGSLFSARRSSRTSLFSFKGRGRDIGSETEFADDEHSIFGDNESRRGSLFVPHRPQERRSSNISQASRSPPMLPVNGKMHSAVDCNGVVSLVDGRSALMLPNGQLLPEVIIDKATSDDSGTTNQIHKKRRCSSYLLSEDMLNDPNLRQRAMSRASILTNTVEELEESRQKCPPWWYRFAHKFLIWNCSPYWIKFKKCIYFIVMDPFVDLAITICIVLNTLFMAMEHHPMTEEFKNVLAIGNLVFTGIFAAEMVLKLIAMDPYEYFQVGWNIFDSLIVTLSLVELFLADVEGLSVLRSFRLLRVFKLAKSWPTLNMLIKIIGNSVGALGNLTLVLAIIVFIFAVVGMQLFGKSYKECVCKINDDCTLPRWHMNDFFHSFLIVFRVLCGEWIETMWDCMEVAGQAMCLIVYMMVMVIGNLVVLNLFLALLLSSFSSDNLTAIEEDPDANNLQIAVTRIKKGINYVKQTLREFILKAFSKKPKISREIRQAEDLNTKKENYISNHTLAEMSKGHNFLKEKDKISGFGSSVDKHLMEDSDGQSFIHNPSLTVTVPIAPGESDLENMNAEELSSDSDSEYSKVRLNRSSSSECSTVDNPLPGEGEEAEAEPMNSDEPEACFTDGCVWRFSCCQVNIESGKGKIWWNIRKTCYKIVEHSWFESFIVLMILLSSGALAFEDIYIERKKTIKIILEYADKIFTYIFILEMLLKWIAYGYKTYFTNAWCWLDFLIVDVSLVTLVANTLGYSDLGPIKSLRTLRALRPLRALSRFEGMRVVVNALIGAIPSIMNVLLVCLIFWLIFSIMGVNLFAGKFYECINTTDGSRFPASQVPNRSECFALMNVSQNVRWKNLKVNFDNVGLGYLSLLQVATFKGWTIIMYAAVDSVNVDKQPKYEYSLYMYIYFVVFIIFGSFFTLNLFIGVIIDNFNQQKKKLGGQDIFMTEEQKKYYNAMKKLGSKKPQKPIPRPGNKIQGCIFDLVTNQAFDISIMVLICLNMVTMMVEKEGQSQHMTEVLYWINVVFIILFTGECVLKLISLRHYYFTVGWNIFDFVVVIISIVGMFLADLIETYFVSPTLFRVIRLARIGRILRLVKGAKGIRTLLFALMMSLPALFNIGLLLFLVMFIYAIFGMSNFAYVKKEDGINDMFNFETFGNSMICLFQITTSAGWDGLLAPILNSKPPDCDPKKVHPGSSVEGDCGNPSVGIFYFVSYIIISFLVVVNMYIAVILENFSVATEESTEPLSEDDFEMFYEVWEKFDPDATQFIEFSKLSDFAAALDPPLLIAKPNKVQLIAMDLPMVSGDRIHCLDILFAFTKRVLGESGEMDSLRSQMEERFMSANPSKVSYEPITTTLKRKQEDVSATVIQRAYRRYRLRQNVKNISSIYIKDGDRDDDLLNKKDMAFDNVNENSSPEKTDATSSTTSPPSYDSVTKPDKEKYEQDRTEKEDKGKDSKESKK

Structure (SMILES) | IC50 [1] | IC50 [2]
Cc1c(-c2ccc(F)cc2)ccnc1[C@H]1CC[C@@]2(CCN(C)C2=O)N1 [Example 19, (2R,5S)-2-[4-(4-Fluorophenyl)-3-methyl-2-pyridyl]-7-methyl-1,7-diazaspiro[4.4]nonan-6-one hydrochloride] | 6.31 µM | 50.1 µM
Cc1c(-c2ccc(C(F)(F)F)cc2)ccnc1[C@@H]1CC[C@@]2(CCN(C)C2=O)N1 [Example 16, (2S,5S)-7-Methyl-2-[3-methyl-4-[4-(trifluoromethyl)phenyl]-2-pyridyl]-1,7-diazaspiro[4.4]nonan-6-one hydrochloride] | 12.6 µM | 100 µM
CN1CC[C@@]2(CC[C@H](c3cc(-c4cccc5cccnc45)ccn3)N2)C1=O [Example 164, (2R,5S)-7-Methyl-2-[4-(8-quinolyl)-2-pyridyl]-1,7-diazaspiro[4.4]nonan-6-one hydrochloride] | 39.8 µM | 1260 µM
CN1CC[C@@]2(CC[C@@H](c3cc(-c4ccccc4F)ccn3)N2)C1=O [Example 33, (2S,5S)-2-[4-(2-Fluoro-phenyl)-pyridin-2-yl]-7-methyl-1,7-diaza-spiro[4.4]nonan-6-one hydrochloride] | 39.8 µM | 126 µM
CCOc1ccc(Cl)c(-c2ccnc([C@H]3CC[C@@]4(CCN(C)C4=O)N3)c2)c1 [Example 181, (2R,5S)-2-[4-(2-Chloro-5-ethoxy-phenyl)-2-pyridyl]-7-methyl-1,7-diazaspiro[4.4]nonan-6-one hydrochloride] | 5.01 µM | 100 µM
CN1CC[C@@]2(CC[C@H](c3cc(-c4ccc(OC(F)F)cc4F)ccn3)N2)C1=O [Example 156, (2R,5S)-2-[4-(4-Difluoromethoxy-2-fluoro-phenyl)-pyridin-2-yl]-7-methyl-1,7-diaza-spiro[4.4]nonan-6-one hydrochloride] | 20 µM | 126 µM
CCOc1ccc(F)c(-c2cc(OC)nc([C@H]3CC[C@]4(CCN(C)C4=O)N3)c2)c1 (single isomer, unassigned) [Example 247, hydrochloride] | 1.26 µM | 20 µM
CCOc1ccc(F)c(-c2ccnc([C@@H]3CC[C@]4(CCN(C)C4=O)N3)c2)c1 [Example 145, (2S,5R)-2-[4-(5-Ethoxy-2-fluoro-phenyl)-2-pyridyl]-7-methyl-1,7-diazaspiro[4.4]nonan-6-one hydrochloride] | 6.31 µM | 79.4 µM
Cc1cc(-c2ccc(C(F)(F)F)cc2)cc([C@H]2CC[C@]3(CCCNC3=O)N2)n1 [Example 100, (2R,5S)-2-[6-Methyl-4-(4-trifluoromethyl-phenyl)-pyridin-2-yl]-1,7-diaza-spiro[4.5]decan-6-one hydrochloride] | 0.2 µM | 1 µM
CCOc1ccc(F)c(-c2ccnc([C@H]3CC[C@]4(CC[C@H](C)NC4=O)N3)c2)c1 [Example 243, hydrochloride] | 1.26 µM | 15.8 µM
CCN1[C@H](c2cc(-c3ccc(C(F)(F)F)cc3)ccn2)CC[C@]12CCCNC2=O [Example 233, hydrochloride] | 12.6 µM | 31.6 µM
CCOc1ccc(F)c(-c2ccnc([C@H]3CC[C@@]4(CC[C@H](C)NC4=O)N3)c2)c1 [Example 246, hydrochloride] | 1 µM | 15.8 µM
CCOc1ccc(C)c(-c2ccnc([C@H]3CC[C@@]4(CCN(C)C4=O)N3)c2)c1 [Example 178, (2R,5S)-2-[4-(5-Ethoxy-2-methyl-phenyl)-2-pyridyl]-7-methyl-1,7-diazaspiro[4.4]nonan-6-one hydrochloride] | 25.1 µM | 631 µM
